# Results from article PMC6600292, “Potent Anti-Ovarian Cancer with Inhibitor Activities on Both Topoisomerase II and ^V600EBRAF of Synthesized Substituted Estrone Candidates” (Molecules, 2019).
# Where two headings read alike, the source gives them in different places.
# Tests used:
# in vitro = format: cell-based
# Experimental: (§1) The cytotoxic activities of the synthesized derivatives against ovarian cancer cell lines (SKOV-3) were evaluated using standard MTT assay. SKOV-3 cells cultivated on DMEM medium supplemented with 10% FBS, […], 1% antibiotic/antimycotic solution and 3.6 g/L NaHCO3 were used. Cells were incubated under standard laboratory conditions. Before testing compounds, cells were trypsinized, centrifuged and prepared as per our developed protocol. MTT assay relies on the enzymatic conversion of the MTT substrate into purple formazan by living cells mitochondrial enzymes. Shortly, 96 well plates were seeded (10,000 cells/100 µL/well), then incubated for 24 h at standard conditions. Afterwards, cells were exposed to different concentrations from prepared compounds and incubated for another 24 h. Thereafter, MTT (10 µL, 5 mg/mL, PBS) were added to each well, and plates were incubated for 4 h. Supernatants were then replaced discarded with 200 µL of DMSO to dissolve the precipitated formazan crystals. Formazan absorbance, proportional to living cell number, was read at 550 nm using a microplate reader. Viability percentages were calculated and the corresponding IC50 values were obtained from the linear regression of the calibration curve. For comparison, doxorubicin (DOX) and resveratrol (RES) were used as positive controls. Furthermore, the effect of the newly synthesized derivatives was tested against normal fibroblast cell line to assess their toxicities.
# SKOV-3 cells = test: MTT cytotoxicity assay against SKOV-3 ovarian cancer cells; format: cell-based; settings: Homo sapiens, read-out: IC50, cytotoxicity against SKOV-3
# Experimental: as §1
# topoisomerase II = test: Topoisomerase II relaxation assay; format: biochemical; settings: topoisomerase II purified from P388 cells, relaxation of pBR-322 DNA; read-out: IC50, topoisomerase II inhibition
# Experimental: The inhibitory effects of the synthesized compounds against topoisomerase II were investigated using relaxation assay according to Goyeneche, et al.. Topoisomerase II was purified from P388 cells, where enzyme unit corresponds to the activity required complete relaxation of […] of supercoiled pBR-322 DNA at 30 °C for 1 h. The assay was performed as per protocol and samples were subjected to electrophoresis (0.7% agarose gels, TBE buffer. Ethidium bromide-stained DNA was examined under UV light.
# [1] = molecular target: T1, V600EBRAF (mutant BRAF kinase) (Homo sapiens, UniProt P15056, V600E); test: In vitro ELISA-based kinase assay, V600EBRAF; format: biochemical; settings: GST-MEK-His substrate
# T1 construct: BRAF wild-type and V600E mutant kinase domains were expressed and purified; made in house; host or cells: Sf9 insect cells, baculovirus
# T1 sequence (P15056 457-717 V600E limits assumed): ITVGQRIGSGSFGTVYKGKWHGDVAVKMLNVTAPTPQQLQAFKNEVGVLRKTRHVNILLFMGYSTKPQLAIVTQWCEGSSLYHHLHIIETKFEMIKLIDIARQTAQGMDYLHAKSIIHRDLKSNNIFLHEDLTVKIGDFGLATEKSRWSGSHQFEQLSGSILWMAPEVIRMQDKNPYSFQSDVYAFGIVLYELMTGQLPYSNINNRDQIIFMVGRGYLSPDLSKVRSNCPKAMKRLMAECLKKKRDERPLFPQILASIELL
# Experimental: BRAF wild-type and V600E mutant kinase domains were expressed and purified according to Nakamura et al. [34]. Shortly, Sf 9 cells infected with BRAF kinase domain containing baculovirus were resuspended, sonicated, and then cleared using ultracentrifugation. Afterwards, the cleared lysate with mixed with equilibrated Talon resin, and the resin then washed with 10 column volumes of wash buffer and then eluted with buffer (25 mM Tris, pH 7.0, 250 mM NaCl, 160 mM imidazole, 10% glycerol). The eluant was then diluted, concentrated using Superdex 200 gel filtration column, purified as previously described and finally stored at –80 °C until use.
# The previously prepared GST MEK-His protein was diluted in TTBS buffer (100 μL, 50 μg/mL), and then bound to 96-plate wells coated with glutathione (Pierce Biotechnology). Two DMSO-dilutions of each compound (1 µL) were added to 50 μL (50mM HEPES, pH7.0, 0.7 pmol of BRAF^V600E kinase). Tubes were incubated at ambient temperature for 1 h, then added to GST-MEK-His-plate wells. Afterwards, 50 μL of phosphorylation buffer were added to start kinase reaction (37 °C/30 min/shaking). Reaction was stopped, then substrate was added, and the signal was recorded. […]
# [2] = SK-OV-3, SKOV-3 cells, MTT, 24 h exposure
Compound,IC50 at 24 h (in vitro) [µM],melting point [°C],"IC50 (SKOV-3 cells; SK-OV-3, 24 h) [µM]",IC50 (topoisomerase II) [µM],IC50 [1] [µM],IC50 (SKOV-3 cells; [2]) [µM]
"CCOCC1CC2C3CCc4cc(O)ccc4C3CCC2(C)C1NN (stereo not drawn) [Compound 3c, 16-(α-Ethoxy-methane)-17-hydrazino-estra-1(10),2,4-trien-[17,16-c]-3-ol]",5.67,219 to 221,,,,
"COCC1CC2C3CCc4cc(O)ccc4C3CCC2(C)C1NNc1ccccc1 (stereo not drawn) [Compound 3i, 16-(α-Methoxy-methane)-17-[N-phenyl-hydrazino]-estra-1(10),2,4-trien-[17,16-c]-3-ol]",15.1,312 to 314,,,,
"COC(C)C1CC2C3CCc4cc(O)ccc4C3CCC2(C)C1NNc1ccccc1 (stereo not drawn) [Compound 3j, 16-(α-Methoxy-ethane)-17-[N-phenyl-hydrazino]-estra-1(10),2,4-trien-[17,16-c]-3-ol]",16.2,229 to 231,,,,
"CCOCC1CC2C3CCc4cc(O)ccc4C3CCC2(C)C1NNc1ccccc1 (stereo not drawn) [Compound 3k, 16-(α-Ethoxy-methane)-17-[N-phenyl-hydrazino]-estra-1(10),2,4-trien-[17,16-c]-3-ol]",17.8,338 to 340,,,,
"CNNC1C(C(C)OC)CC2C3CCc4cc(O)ccc4C3CCC21C (stereo not drawn) [Compound 3f, 16-(α-Methoxy-ethane)-17-[N-methyl-hydrazino]-estra-1(10),2,4-trien-[17,16-c]-3-ol]",9.2,310 to 312,,,,
"CC1C2CC3C4CCc5cc(O)ccc5C4CCC3(C)C2=NN1C (centres unmarked) [Compound 4b, 1`-Methyl-1`H-5`-methyl-estra-1(10),2,4-trien-[17,16-c]pyrazoline-3-ol]",24.6,216 to 218,,,,
"CCOC(C)C1CC2C3CCc4cc(O)ccc4C3CCC2(C)C1NNC (stereo not drawn) [Compound 3h, 16-(α-Ethoxy-ethane)-17-[N-methyl-hydrazino]-estra-1(10),2,4-trien-[17,16-c]-3-ol]",16.2,280 to 282,,,,
"COCC1CC2C3CCc4cc(O)ccc4C3CCC2(C)C1NN (stereo not drawn) [Compound 3a, 16-(α-Methoxy-methane)-17-hydrazino-estra-1(10),2,4-trien-[17,16-c]-3-ol]",1.2,199 to 201,0.00423 ± 0.00012,0.00345 ± 0.00013,0.041 ± 0.0016,
"CC1C2CC3C4CCc5cc(O)ccc5C4CCC3(C)C2=NN1c1ccccc1 (centres unmarked) [Compound 4d, 1`-Phenyl-1`H-5`-methyl-estra-1(10),2,4-trien-[17,16-c]pyrazoline-3-ol]",30.3,214 to 216,,0.0436 ± 0.00098,,
CNNC1C(COC)CC2C3CCc4cc(O)ccc4C3CCC21C (centres unmarked) [Compound 3e],8.11,222 to 224,,,,
"CN1CC2CC3C4CCc5cc(O)ccc5C4CCC3(C)C2=N1 (centres unmarked) [Compound 4a, 1`-Methyl-1`H-estra-1(10),2,4-trien-[17,16-c]pyrazoline-3-ol]",23.3,117 to 119,,,,
"CCOC(C)C1CC2C3CCc4cc(O)ccc4C3CCC2(C)C1NNc1ccccc1 (stereo not drawn) [Compound 3l, 16-(α-Ethoxy-ethane)-17-[N-phenyl-hydrazino]-estra-1(10),2,4-trien-[17,16-c]-3-ol]",20.2,288 to 300,,,,
"CCOCC1CC2C3CCc4cc(O)ccc4C3CCC2(C)C1NNC (stereo not drawn) [Compound 3g, 16-(α-Ethoxy-methane)-17-[N-methyl-hydrazino]-estra-1(10),2,4-trien-[17,16-c]-3-ol]",11.2,286 to 288,,,,
Oc1ccc(/C=C/c2cc(O)cc(O)c2)cc1 [resveratrol],,,,,,0.055
"CCOC(C)C1CC2C3CCc4cc(O)ccc4C3CCC2(C)C1NN (stereo not drawn) [Compound 3d, 16-(α-Ethoxy-ethane)-17-hydrazino-estra-1(10),2,4-trien-[17,16-c]-3-ol]",7.44,223 to 225,,,,
"COC(C)C1CC2C3CCc4cc(O)ccc4C3CCC2(C)C1NN (stereo not drawn) [Compound 3b, 16-(α-Methoxy-ethane)-17-hydrazino-estra-1(10),2,4-trien[17,16-c]-3-ol]",2.45,308 to 310,,,,
COc1cccc2c1C(=O)c1c(O)c3c(c(O)c1C2=O)C[C@@](O)(C(=O)CO)C[C@@H]3O[C@H]1C[C@H](N)[C@H](O)[C@H](C)O1 [doxorubicin],,,,,,0.25
"CC12CCC3c4ccc(O)cc4CCC3C1CC1CN(c3ccccc3)N=C12 (centres unmarked) [Compound 4c, 1`-Phenyl-1`H-estra-1(10),2,4-trien-[17,16-c]pyrazoline-3-ol]",25.6,255 to 257,,,,
